# Where two headings read alike, the source gives them in different places.
# Tested on: male db/db mice
# Assay: Blood glucose, triglyceride and non-esterified fatty acid reduction in db/db mice
# Assay type: in vivo
# Details: Mus musculus, 216 h, oral once a day, day 9 after administration
# Description: A chemical suspended in 0.5% methyl cellulose was orally administered via a sonde into male db/db mice (Nippon Charles River, Yokohama, JP) once a day (0.3 to 30 mg/kg/day). Before treatment and after 4 and 9 days treatment, blood was collected through a tail vein after the mice were fasted for 1 hour, respectively. On Day 10, an oral glucose loading test was conducted; in this test, the mice were fasted overnight from the previous day, and in the next morning, 2 g/kg glucose was given to the mice. Plasma glucose, triglycerides (TG), non-esterified fatty acid (NEFA) were measured by using commercial kits, that is, Glucose C-II Test Wako (trade name) (Wako Pure Chemical Industries, Ltd., Tokyo), Determiner L TG II (trade name) (Kyowa Medex, Tokyo) and NEFA C-Test Wako (Wako Pure Chemical Industries, Ltd., Tokyo), respectively.
# The determined blood glucose reduction, blood triglyceride reduction and blood non-esterified fatty acid reduction at day 9 after administration are shown in Table 1.
# [1] = read-out: Blood free fatty acid reduction (%)
# [2] = read-out: Blood sugar reduction (%)
# [3] = read-out: Blood triglyceride reduction (%)
Compound,inhibition in vivo at 3 mg/kg [1],inhibition in vivo at 3 mg/kg [2],inhibition in vivo at 3 mg/kg [3],inhibition in vivo at 6 mg/kg [1],inhibition in vivo at 6 mg/kg [2],inhibition in vivo at 6 mg/kg [3]
"CC(C)O[C@@H](Cc1cccc(CNC(=O)OCc2cccc(OC(F)(F)F)c2)c1)C(=O)O [Ex 344, 3-(3-{[3-Trifluoromethoxybenzyloxycarbonylamino]methyl}phenyl)-2(S)-isopropoxypropanoic acid]",58.1%,45.8%,61.8%,–,–,–
"CC(C)O[C@@H](Cc1cccc(CNC(=O)OCc2ccc(OC(F)(F)F)cc2)c1)C(=O)O [Ex 335, 2 (S)-Isopropoxy-3-{3-[(4-trifluoromethoxybenzyloxycarbonylamino)methyl]phenyl}-propanoic acid]",40%,57.2%,81.4%,–,–,–
"CC(C)OC(Cc1cccc(C#C[C@]2(O)CC[C@@H](C(C)(C)C)CC2)c1)C(=O)O (stereo partly drawn) [Ex 113, trans-3-(3-2-[4-t-Butyl-1-hydroxycyclohexyl]-1-ethynylphenyl)-2-isopropoxypropanoic acid]",–,–,–,39.5%,70%,81.8%
"CC(C)O[C@@H](Cc1cccc(OC[C@H](F)COc2ccc(Cl)cc2C#N)c1)C(=O)O [Example 329, 3-{3-[3-(4-Chloro-2-cyanophenoxy)-2(S)-fluoropropoxy]phenyl}-2(S)-isopropoxypropanoic acid]",47.5%,37.7%,36.8%,–,–,–
"CC(C)OC(Cc1cccc(OCC#Cc2ccc(Cl)cc2Cl)c1)C(=O)O (stereo not drawn) [Ex 100, 2-Isopropoxy-3-(3-[3-(2,4-dichlorophenyl)-2-propynyl]oxyphenyl)propanoic acid]",–,–,–,60.7%,65.1%,79.3%
"C/C(=N\OCc1ccc(C(F)(F)F)cc1)c1cccc(CC(OC(C)C)C(=O)O)c1 (stereo not drawn) [Ex 132, 2-Isopropoxy-3-[3-([4-(trifluoromethyl)benzyl]-oxyethaneimidoyl)phenyl]propanoic acid]",–,–,–,72.5%,50.4%,75.5%
"CC(C)O[C@@H](Cc1cccc(OC[C@@H](F)COc2ccc(Cl)cc2Cl)c1)C(=O)O [Example 320, 3-{3-[3-(2,4-Dichlorophenoxy)-2 (R)-fluoropropoxy]phenyl}-2(S)-isopropoxypropanoic acid]",35.4%,56.3%,80.3%,–,–,–
"CC(C)O[C@@H](Cc1cccc(OC[C@H](O)COc2ccc(Cl)cc2)c1)C(=O)O [Example 282, 3-(3-{2(R)-Hydroxy-3-[4-chlorophenoxy]propoxy}phenyl)-2(S)-isopropoxypropanoic acid]",18.4%,17.9%,59.7%,–,–,–

# From patent publication US7544835B2, “Carboxylic acid derivative and salt thereof” (Eisai R&D Management Co., Ltd., priority 2001, dated 2009)
